Reference: ChEMBL document CHEMBL1909046, “DrugMatrix in vitro pharmacology data”

Columns and labels:
[1] = DRUGMATRIX: GABAA, Muscimol, Central radioligand binding (ligand: [3H] Muscimol); assay type: cell membranes, Rattus norvegicus, Wistar, Brain, Membrane; settings: Not Active = under 50% inhibition at 10 µM
[2] = DRUGMATRIX: Calcium Channel Type L, Phenylalkylamine radioligand binding (ligand: [3H] (-)-Desmethoxyverapamil (D-888)); assay type: cell membranes, Rattus norvegicus, Wistar, Brain, Membrane; settings: Not Active = under 50% inhibition at 10 µM
[3] = biological target: T1, Polyunsaturated fatty acid lipoxygenase ALOX15 (Oryctolagus cuniculus, UniProt P12530); test: biochemical; assay type: tissue-based, Reticulocytes; settings: reticulocytes;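 further: inhibition of 15-lipoxygenase enzyme activity measured with linoleic acid as the substrate; in other assays of this panel Not Active means under 50% inhibition at 10 µM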
T1 sequence (P12530 whole entry): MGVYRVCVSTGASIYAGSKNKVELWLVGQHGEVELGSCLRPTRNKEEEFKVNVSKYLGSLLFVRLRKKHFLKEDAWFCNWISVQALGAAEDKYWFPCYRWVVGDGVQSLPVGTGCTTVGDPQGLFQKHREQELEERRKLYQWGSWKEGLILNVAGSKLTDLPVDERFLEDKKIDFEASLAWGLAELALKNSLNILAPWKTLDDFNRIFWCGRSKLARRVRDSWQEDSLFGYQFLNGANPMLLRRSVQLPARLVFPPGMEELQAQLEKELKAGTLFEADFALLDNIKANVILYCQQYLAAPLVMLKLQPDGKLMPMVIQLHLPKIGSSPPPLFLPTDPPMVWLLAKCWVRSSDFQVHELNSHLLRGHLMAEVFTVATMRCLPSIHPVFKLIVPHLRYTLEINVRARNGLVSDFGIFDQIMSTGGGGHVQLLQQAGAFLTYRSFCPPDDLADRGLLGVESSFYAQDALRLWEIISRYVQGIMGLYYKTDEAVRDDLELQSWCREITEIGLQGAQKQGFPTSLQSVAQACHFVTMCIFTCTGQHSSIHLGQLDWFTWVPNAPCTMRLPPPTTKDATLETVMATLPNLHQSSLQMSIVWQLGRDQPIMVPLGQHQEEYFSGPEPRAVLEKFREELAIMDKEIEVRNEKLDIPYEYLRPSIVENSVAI

[4] = DRUGMATRIX: Serotonin (5-Hydroxytryptamine) 5-HT3 radioligand binding (ligand: [3H] GR-65630); assay type: cell membranes, Membrane; settings: hek293; Not Active = under 50% inhibition at 10 µM
[5] = biological target: T2, Alpha-1B adrenergic receptor (Rattus norvegicus, UniProt P15823); test: DRUGMATRIX: Alpha-1B adrenergic receptor radioligand binding (ligand: prazosin); assay type: cell membranes, Wistar, Liver, Membrane; settings: Not Active = under 50% inhibition at 10 µM
T2 sequence (P15823 whole entry): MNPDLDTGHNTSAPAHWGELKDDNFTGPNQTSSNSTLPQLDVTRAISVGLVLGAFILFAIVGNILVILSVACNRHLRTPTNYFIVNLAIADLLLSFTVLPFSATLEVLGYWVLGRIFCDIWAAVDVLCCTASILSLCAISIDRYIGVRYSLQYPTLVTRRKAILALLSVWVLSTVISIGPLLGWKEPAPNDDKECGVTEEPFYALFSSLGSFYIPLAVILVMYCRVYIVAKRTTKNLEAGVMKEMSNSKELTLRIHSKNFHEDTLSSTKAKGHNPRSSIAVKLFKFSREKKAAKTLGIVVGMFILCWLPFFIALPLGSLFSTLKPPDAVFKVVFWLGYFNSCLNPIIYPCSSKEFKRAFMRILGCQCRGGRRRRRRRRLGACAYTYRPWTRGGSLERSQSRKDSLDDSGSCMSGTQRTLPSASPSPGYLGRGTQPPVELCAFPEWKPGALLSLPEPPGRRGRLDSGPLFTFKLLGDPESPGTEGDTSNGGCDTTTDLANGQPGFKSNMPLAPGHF

[6] = biological target: Receptor tyrosine-protein kinase erbB-2 (Homo sapiens, UniProt P04626); test: biochemical; assay type: cell-based, Insect cells; settings: insect cells;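 further: inhibition of HER2 kinase enzyme activity, measured with Poly(Glu:Tyr) as the phosphorylation substrate; in other assays of this panel Not Active means under 50% inhibition at 10 µM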
Cytochrome P450 2E1 = Cytochrome P450 2E1 (Homo sapiens, UniProt P05181); settings: bti-tn-5b1-4; further: in other assays of this panel Not Active means under 50% inhibition at 10 µM
Chain of Cytochrome P450 2E1 (P05181 whole entry): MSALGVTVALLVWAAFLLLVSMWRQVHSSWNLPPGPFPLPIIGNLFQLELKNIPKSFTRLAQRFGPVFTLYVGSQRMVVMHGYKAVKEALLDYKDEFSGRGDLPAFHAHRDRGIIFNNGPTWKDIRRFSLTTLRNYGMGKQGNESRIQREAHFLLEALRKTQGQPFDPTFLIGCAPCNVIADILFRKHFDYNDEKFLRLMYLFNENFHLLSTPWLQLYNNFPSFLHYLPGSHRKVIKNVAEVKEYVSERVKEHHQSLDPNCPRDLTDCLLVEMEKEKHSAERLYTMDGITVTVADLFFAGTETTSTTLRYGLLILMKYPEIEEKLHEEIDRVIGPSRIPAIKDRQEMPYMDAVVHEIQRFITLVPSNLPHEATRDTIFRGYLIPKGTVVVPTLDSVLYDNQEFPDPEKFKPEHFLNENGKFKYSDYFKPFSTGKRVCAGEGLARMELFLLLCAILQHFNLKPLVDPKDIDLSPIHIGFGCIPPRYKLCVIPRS

Chain of Receptor tyrosine-protein kinase erbB-2 (P04626 whole entry): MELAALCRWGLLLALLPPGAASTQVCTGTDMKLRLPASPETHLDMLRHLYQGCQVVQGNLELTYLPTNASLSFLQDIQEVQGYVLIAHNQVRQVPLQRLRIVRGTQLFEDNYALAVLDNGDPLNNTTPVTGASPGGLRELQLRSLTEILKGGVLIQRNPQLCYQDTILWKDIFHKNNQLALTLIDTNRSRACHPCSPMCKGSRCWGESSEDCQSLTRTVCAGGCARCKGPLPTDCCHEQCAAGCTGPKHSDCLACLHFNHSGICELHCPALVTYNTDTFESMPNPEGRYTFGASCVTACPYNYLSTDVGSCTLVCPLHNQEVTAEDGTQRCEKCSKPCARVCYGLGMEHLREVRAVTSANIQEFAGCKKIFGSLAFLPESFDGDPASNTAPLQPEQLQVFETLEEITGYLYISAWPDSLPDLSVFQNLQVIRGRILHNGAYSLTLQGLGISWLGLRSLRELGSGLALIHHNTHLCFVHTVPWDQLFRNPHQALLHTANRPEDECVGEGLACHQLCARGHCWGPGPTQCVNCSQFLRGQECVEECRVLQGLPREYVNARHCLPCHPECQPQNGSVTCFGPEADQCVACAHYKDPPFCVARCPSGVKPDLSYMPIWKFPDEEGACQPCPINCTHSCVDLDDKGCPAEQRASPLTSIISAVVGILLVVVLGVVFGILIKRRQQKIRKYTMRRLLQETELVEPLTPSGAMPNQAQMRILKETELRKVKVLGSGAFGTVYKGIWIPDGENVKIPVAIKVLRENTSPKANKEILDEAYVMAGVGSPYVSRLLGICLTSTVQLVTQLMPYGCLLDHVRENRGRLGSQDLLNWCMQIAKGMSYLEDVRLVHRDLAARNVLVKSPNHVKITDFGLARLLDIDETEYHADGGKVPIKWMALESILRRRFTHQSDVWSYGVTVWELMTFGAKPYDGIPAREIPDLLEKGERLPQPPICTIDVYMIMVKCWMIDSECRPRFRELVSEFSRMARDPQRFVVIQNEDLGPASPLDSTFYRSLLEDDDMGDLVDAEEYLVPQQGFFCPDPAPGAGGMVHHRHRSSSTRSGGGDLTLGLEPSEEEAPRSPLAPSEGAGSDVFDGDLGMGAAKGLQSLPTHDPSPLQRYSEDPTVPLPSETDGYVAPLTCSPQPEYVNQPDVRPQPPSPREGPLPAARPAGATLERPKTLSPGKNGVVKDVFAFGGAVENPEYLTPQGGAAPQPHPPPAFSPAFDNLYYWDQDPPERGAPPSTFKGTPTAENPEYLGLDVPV

O=C(O)c1cn(-c2ccc(F)cc2)c2cc(N3CCNCC3)c(F)cc2c1=O [SARAFLOXACIN]
Not Active: IC50 [1] | Ki [1] | IC50 [2] | Ki [2] | IC50 [3] | IC50 [4] | Ki [4] | IC50 [5] | IC50 [6] | IC50 (Cytochrome P450 2E1) | Ki (Cytochrome P450 2E1)

Nc1cc(N2CCCCC2)nc(N)[n+]1[O-] [MINOXIDIL]
Not Active: IC50 [1] | Ki [1] | IC50 [2] | Ki [2] | IC50 [3] | IC50 [4] | Ki [4] | IC50 [5] | IC50 [6] | IC50 (Cytochrome P450 2E1) | Ki (Cytochrome P450 2E1)

CC(C)NCC(O)c1ccc(NS(C)(=O)=O)cc1 (stereo not drawn) [SOTALOL]
Not Active: IC50 [1] | Ki [1] | IC50 [2] | Ki [2] | IC50 [3] | IC50 [4] | Ki [4] | IC50 [5] | IC50 [6] | IC50 (Cytochrome P450 2E1) | Ki (Cytochrome P450 2E1)

CS(=O)(=O)c1ccc([C@@H](O)[C@@H](CO)NC(=O)C(Cl)Cl)cc1 [THIAMPHENICOL]
Not Active: IC50 [1] | Ki [1] | IC50 [2] | Ki [2] | IC50 [3] | IC50 [4] | Ki [4] | IC50 [5] | IC50 [6] | IC50 (Cytochrome P450 2E1) | Ki (Cytochrome P450 2E1)

CCN1CCC[C@H]1CNC(=O)c1cc(S(N)(=O)=O)ccc1OC [LEVOSULPIRIDE]
Not Active: IC50 [1] | Ki [1] | IC50 [2] | Ki [2] | IC50 [3] | IC50 [4] | Ki [4] | IC50 [5] | IC50 [6] | IC50 (Cytochrome P450 2E1) | Ki (Cytochrome P450 2E1)

CCN(CC)CC(=O)Nc1c(C)cccc1C [LIDOCAINE]
Not Active: IC50 [1] | Ki [1] | IC50 [2] | Ki [2] | IC50 [3] | IC50 [4] | Ki [4] | IC50 [5] | IC50 [6] | IC50 (Cytochrome P450 2E1) | Ki (Cytochrome P450 2E1)

CC(c1cc2ccccc2s1)N(O)C(N)=O (stereo not drawn) [ZILEUTON]
Not Active: IC50 [1] | Ki [1] | IC50 [2] | Ki [2] | IC50 [3] | IC50 [4] | Ki [4] | IC50 [5] | IC50 [6] | IC50 (Cytochrome P450 2E1) | Ki (Cytochrome P450 2E1)

CCCCNc1ccc(C(=O)OCCN(C)C)cc1 [TETRACAINE]
Not Active: IC50 [1] | Ki [1] | IC50 [2] | Ki [2] | IC50 [3] | IC50 [4] | Ki [4] | IC50 [5] | IC50 [6] | IC50 (Cytochrome P450 2E1) | Ki (Cytochrome P450 2E1)

CC[C@@H](C(=O)[C@@H](C)[C@@H](O)[C@H](C)[C@@H]1O[C@@H]([C@@H](CC)C(=O)O)CC[C@@H]1C)[C@H]1O[C@]2(C=C[C@@H](O)[C@]3(CC[C@@](C)([C@H]4CC[C@](O)(CC)[C@H](C)O4)O3)O2)[C@H](C)C[C@@H]1C [SALINOMYCIN]
Not Active: IC50 [1] | Ki [1] | IC50 [2] | Ki [2] | IC50 [3] | IC50 [4] | Ki [4] | IC50 [5] | IC50 [6] | IC50 (Cytochrome P450 2E1) | Ki (Cytochrome P450 2E1)

CC(C)Cc1ccc([C@@H](C)C(=O)O)cc1 [(R)-IBUPROPHEN]
Not Active: IC50 [1] | Ki [1] | IC50 [2] | Ki [2] | IC50 [3] | IC50 [4] | Ki [4] | IC50 [5] | IC50 [6] | IC50 (Cytochrome P450 2E1) | Ki (Cytochrome P450 2E1)

NC(=O)N1C(=O)/C(=C(\O)c2cccs2)c2cc(Cl)ccc21 [TENIDAP]
Not Active: IC50 [1] | Ki [1] | IC50 [2] | Ki [2] | IC50 [3] | IC50 [4] | Ki [4] | IC50 [5] | IC50 [6] | IC50 (Cytochrome P450 2E1) | Ki (Cytochrome P450 2E1)

O=C1C(CC[S+]([O-])c2ccccc2)C(=O)N(c2ccccc2)N1c1ccccc1 (stereo not drawn) [SULFINPYRAZONE]
Not Active: IC50 [1] | Ki [1] | IC50 [2] | Ki [2] | IC50 [3] | IC50 [4] | Ki [4] | IC50 [5] | IC50 [6] | IC50 (Cytochrome P450 2E1) | Ki (Cytochrome P450 2E1)

CO[C@H]1/C=C/O[C@@]2(C)Oc3c(C)c(O)c4c(O)c(c(/C=N/N5CCN(C6CCCC6)CC5)c(O)c4c3C2=O)NC(=O)/C(C)=C\C=C\[C@H](C)[C@H](O)[C@@H](C)[C@@H](O)[C@@H](C)[C@H](OC(C)=O)[C@@H]1C [RIFAPENTINE]
Not Active: IC50 [1] | Ki [1] | IC50 [2] | Ki [2] | IC50 [3] | IC50 [4] | Ki [4] | IC50 [5] | IC50 [6] | IC50 (Cytochrome P450 2E1) | Ki (Cytochrome P450 2E1)

Cn1c(=O)c2nc[nH]c2n(C)c1=O.O [THEOPHYLLINE]
Not Active: IC50 [1] | Ki [1] | IC50 [2] | Ki [2] | IC50 [3] | IC50 [4] | Ki [4] | IC50 [5] | IC50 [6] | IC50 (Cytochrome P450 2E1) | Ki (Cytochrome P450 2E1)

CCCCOc1cc(CC2CNC(=O)N2)ccc1OC (stereo not drawn) [RO-201724]
Not Active: IC50 [1] | Ki [1] | IC50 [2] | Ki [2] | IC50 [3] | IC50 [4] | Ki [4] | IC50 [5] | IC50 [6] | IC50 (Cytochrome P450 2E1) | Ki (Cytochrome P450 2E1)

N#Cc1ccc(C(c2ccc(C#N)cc2)n2cncn2)cc1 [LETROZOLE]
Not Active: IC50 [1] | Ki [1] | IC50 [2] | Ki [2] | IC50 [3] | IC50 [4] | Ki [4] | IC50 [5] | IC50 [6] | IC50 (Cytochrome P450 2E1) | Ki (Cytochrome P450 2E1)

CN(C/C=C/C#CC(C)(C)C)Cc1cccc2ccccc12 [TERBINAFINE]
Not Active: IC50 [1] | Ki [1] | IC50 [2] | Ki [2] | IC50 [3] | IC50 [4] | Ki [4] | IC50 [5] | IC50 [6] | IC50 (Cytochrome P450 2E1) | Ki (Cytochrome P450 2E1)

O=C1Nc2ccc(Cl)cc2C(c2ccccc2Cl)=NC1O (stereo not drawn) [LORAZEPAM]
Not Active: IC50 [1] | Ki [1] | IC50 [2] | Ki [2] | IC50 [3] | IC50 [4] | Ki [4] | IC50 [5] | IC50 [6] | IC50 (Cytochrome P450 2E1) | Ki (Cytochrome P450 2E1)
